Measurements from PubChem BioAssay AID256 (DTP/NCI, 2004).
Values joined by “and” are separate entries in the source; they are usually repeats but may differ in a detail not shown here. Identical values can stand only once. Toxic doses and inconclusive results are not listed. The calls were made as follows: active = survival T/C of 150% or more; inactive = T/C below 125% in these data.

Test system: CD2F1 mice, L1210 leukemia ip, survival T/C
Assay: NCI In Vivo Anticancer Drug Screen. Data for tumor model L1210 Leukemia (intraperitoneal) in CD2F1 (CDF1) mice
Conditions: endpoint: mean survival time, higher = longer survival
How it was run: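 In this screen, transplantable tumors were grown in mice given either the compound or its vehicle. Results were expressed as the treated measurement relative to the control measurement.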

[1] = dose: 100.0 mg/kg/injection, schedule: Q04DX003 (ip), vehicle: saline with Tween-80
[2] = dose: 200.0 mg/kg/injection, schedule: Q04DX003 (ip), vehicle: saline with Tween-80
[3] = dose: 400.0 mg/kg/injection, schedule: Q04DX003 (ip), vehicle: saline with Tween-80
[4] = dose: 100.0 mg/kg/injection, schedule: Q01DX009 (ip), vehicle: saline with Tween-80
[5] = dose: 200.0 mg/kg/injection, schedule: Q01DX009 (ip), vehicle: saline with Tween-80
[6] = dose: 400.0 mg/kg/injection, schedule: Q01DX009 (ip), vehicle: saline with Tween-80

Measured: T/C

CCCCN(CCCC)CC(O)c1cc(-c2ccc(Cl)cc2)nc2c(OC)ccc(OC)c12 (stereo not drawn)
inactive: [1] 98 % of control | [2] 102 % of control | [3] 98 % of control

O=CNc1cccc2ccc3cc4ccccc4cc3c12
inactive: dose: 50.0 mg/kg/injection, schedule: Q01DX009 (ip), vehicle: saline with Tween-80 90 % of control | [4] 88 % of control | [1] 94 % of control | [5] 93 % of control | [2] 88 % of control

O=[N+]([O-])c1ncn[nH]1
inactive: [4] 111 % of control | [5] 100 % of control | [6] 92 % of control

O=c1c(F)cn(-c2ccco2)c(=O)n1-c1ccco1
inactive: [2] 98 % of control | [3] 102 % of control

Nc1ncnc2c1nc(N1CCCCC1)n2C1OC(CO)C(O)C1O (stereo not drawn)
inactive: dose: 12.5 mg/kg/injection, schedule: Q01DX005 (ip), vehicle: distilled water + Tween-80 92 % of control and 98 % of control | dose: 25.0 mg/kg/injection, schedule: Q01DX005 (ip), vehicle: distilled water + Tween-80 103 % of control and 97 % of control | dose: 50.0 mg/kg/injection, schedule: Q01DX005 (ip), vehicle: distilled water + Tween-80 99 % of control and 98 % of control | dose: 100.0 mg/kg/injection, schedule: Q01DX005 (ip), vehicle: distilled water + Tween-80 101 % of control and 100 % of control | dose: 200.0 mg/kg/injection, schedule: Q01DX005 (ip), vehicle: distilled water + Tween-80 97 % of control and 100 % of control

O=C1CC(=Nc2ccccc2)CC(=O)N1
inactive: dose: 12.5 mg/kg/injection, schedule: Q01DX009 (ip), vehicle: other 102 % of control | dose: 25.0 mg/kg/injection, schedule: Q01DX009 (ip), vehicle: other 105 % of control | dose: 50.0 mg/kg/injection, schedule: Q01DX009 (ip), vehicle: other 91 % of control | dose: 100.0 mg/kg/injection, schedule: Q01DX009 (ip), vehicle: other 89 % of control | dose: 200.0 mg/kg/injection, schedule: Q01DX009 (ip), vehicle: other 89 % of control

CC(C)NC(=S)NC1=CCNN1c1ccccc1
inactive: dose: 100.0 mg/kg/injection, schedule: Q04DX002 (ip), vehicle: saline with Tween-80 100 % of control | dose: 200.0 mg/kg/injection, schedule: Q04DX002 (ip), vehicle: saline with Tween-80 88 % of control | dose: 400.0 mg/kg/injection, schedule: Q04DX002 (ip), vehicle: saline with Tween-80 88 % of control

N#CC(O)c1ccc([N+](=O)[O-])cc1 (stereo not drawn)
inactive: dose: 1.25 mg/kg/injection, schedule: Q04DX002 (ip), vehicle: saline with Tween-80 101 % of control | dose: 2.5 mg/kg/injection, schedule: Q04DX002 (ip), vehicle: saline with Tween-80 101 % of control | dose: 5.0 mg/kg/injection, schedule: Q04DX002 (ip), vehicle: saline with Tween-80 101 % of control | dose: 10.0 mg/kg/injection, schedule: Q04DX002 (ip), vehicle: saline with Tween-80 97 % of control

CCCCCn1c(Cl)c(/C=N/NC(N)=S)c2ccccc21
inactive: dose: 25.0 mg/kg/injection, schedule: Q04DX003 (ip), vehicle: saline with Tween-80 102 % of control | dose: 50.0 mg/kg/injection, schedule: Q04DX003 (ip), vehicle: saline with Tween-80 93 % of control | [1] 96 % of control

COc1cc(/C=C/c2ccc3ccccc3n2)cc(OC)c1OC
inactive: [4] 94 % of control | [1] 104 % of control | [5] 91 % of control | [2] 96 % of control | [6] 89 % of control | [3] 98 % of control

N#CCCCN=[N+]=[N-]
inactive: dose: 75.0 mg/kg/injection, schedule: Q01DX001 (ip), vehicle: saline 96 % of control | dose: 150.0 mg/kg/injection, schedule: Q01DX001 (ip), vehicle: saline 101 % of control

CCOC(=O)c1cc(CO)nc2c(Cl)cc(Cl)cc12
inactive: [4] 91 % of control | [1] 93 % of control | [5] 90 % of control | [2] 90 % of control | [6] 90 % of control | [3] 93 % of control

CCC/C(C)=N/Nc1ccc([N+](=O)[O-])cc1
inactive: [4] 94 % of control | [1] 95 % of control | [5] 100 % of control | [2] 97 % of control | [6] 94 % of control | [3] 93 % of control
